Experimental data: patent publication US8623883B2, “4-phenylamino-quinazolin-6-yl-amides” (Warner-Lambert Company LLC, priority 2004, dated 2014)
Values after ≈ are worked out from the molar mass of the structure shown.

Key:
ErbB1 = ErbB1 (Homo sapiens (Human), UniProt P00533); assay: ELISA-based erbB kinase assay (ErbB1); format: biochemical; conditions: GST-erbB1 cytoplasmic fusion protein, 20 uM ATP, poly-Glu-Tyr substrate
Text: (§1) ErbB1, erbB2 and erbB4 cytoplasmic fusion proteins were made by cloning the erbB1 sequence (Met-668 to Ala1211), erbB2 (Ile-675 to Val-1256) and erbB4 sequence (Gly-259 to Gly-690) into the baculoviral vector pFastBac using Polymerase Chain Reaction (PCR). Proteins were expressed in Baculovirus-infected Sf9 insect cells as Glutathione S-Transferase (GST) fusion proteins. The proteins were purified by affinity chromatography using glutathione sepharose beads.
(§2) Inhibition of erbB tyrosine kinase activity was assessed using an ELISA-based receptor tyrosine kinase assay. Kinase reactions (50 mM HEPES, pH 7.4, 125 mM NaCl, 10 mM MgCl2, 100 μM sodium orthovanadate, 2 mM dithiothreitol, 20 uM ATP, test compound or vehicle control and 1-5 nM GST-erbB per 50 uL reaction) were run in 96-well plates coated with 0.25 mg/ml poly-Glu-Tyr (Sigma). The reactions were incubated for 6 minutes at room temperature while shaking. Kinase reactions were stopped by removal of reaction mixture, then wells were washed with wash buffer comprising 3% Bovine Serum Albumin and 0.1% Tween 20 in Phosphate Buffered Saline (PBS). Phosphorylated tyrosine residues were detected by adding 0.2 μg/ml anti-phosphotyrosine antibody (Oncogene Ab-4; 50 μL/well) coupled to Horse Radish Peroxidase (HRP) for 25 minutes while shaking at room temperature. The antibody was removed, and plates were washed (3% BSA and 0.1% Tween 20 in PBS). HRP substrate 3,3′,5,5′-tetramethylbenzidene (SureBlueTMB, Kirkegaard & Perry Labs) was added (50 μL per well) and incubated for 10-20 minutes while shaking at room temperature. The TMB reaction was stopped with the addition of 50 μL stop solution (0.09 N H2SO4). The signal was quantified by measuring absorbance at 450 nm. IC50 values were determined for test compounds using Microsoft Excel.

ErbB4 = ErbB4 (Homo sapiens, UniProt Q15303); assay: ELISA-based erbB kinase assay (ErbB4); format: biochemical; conditions: GST-erbB4 cytoplasmic fusion protein, 20 uM ATP, poly-Glu-Tyr substrate
Sequence of ErbB4 (Q15303 26-1308 limits assumed): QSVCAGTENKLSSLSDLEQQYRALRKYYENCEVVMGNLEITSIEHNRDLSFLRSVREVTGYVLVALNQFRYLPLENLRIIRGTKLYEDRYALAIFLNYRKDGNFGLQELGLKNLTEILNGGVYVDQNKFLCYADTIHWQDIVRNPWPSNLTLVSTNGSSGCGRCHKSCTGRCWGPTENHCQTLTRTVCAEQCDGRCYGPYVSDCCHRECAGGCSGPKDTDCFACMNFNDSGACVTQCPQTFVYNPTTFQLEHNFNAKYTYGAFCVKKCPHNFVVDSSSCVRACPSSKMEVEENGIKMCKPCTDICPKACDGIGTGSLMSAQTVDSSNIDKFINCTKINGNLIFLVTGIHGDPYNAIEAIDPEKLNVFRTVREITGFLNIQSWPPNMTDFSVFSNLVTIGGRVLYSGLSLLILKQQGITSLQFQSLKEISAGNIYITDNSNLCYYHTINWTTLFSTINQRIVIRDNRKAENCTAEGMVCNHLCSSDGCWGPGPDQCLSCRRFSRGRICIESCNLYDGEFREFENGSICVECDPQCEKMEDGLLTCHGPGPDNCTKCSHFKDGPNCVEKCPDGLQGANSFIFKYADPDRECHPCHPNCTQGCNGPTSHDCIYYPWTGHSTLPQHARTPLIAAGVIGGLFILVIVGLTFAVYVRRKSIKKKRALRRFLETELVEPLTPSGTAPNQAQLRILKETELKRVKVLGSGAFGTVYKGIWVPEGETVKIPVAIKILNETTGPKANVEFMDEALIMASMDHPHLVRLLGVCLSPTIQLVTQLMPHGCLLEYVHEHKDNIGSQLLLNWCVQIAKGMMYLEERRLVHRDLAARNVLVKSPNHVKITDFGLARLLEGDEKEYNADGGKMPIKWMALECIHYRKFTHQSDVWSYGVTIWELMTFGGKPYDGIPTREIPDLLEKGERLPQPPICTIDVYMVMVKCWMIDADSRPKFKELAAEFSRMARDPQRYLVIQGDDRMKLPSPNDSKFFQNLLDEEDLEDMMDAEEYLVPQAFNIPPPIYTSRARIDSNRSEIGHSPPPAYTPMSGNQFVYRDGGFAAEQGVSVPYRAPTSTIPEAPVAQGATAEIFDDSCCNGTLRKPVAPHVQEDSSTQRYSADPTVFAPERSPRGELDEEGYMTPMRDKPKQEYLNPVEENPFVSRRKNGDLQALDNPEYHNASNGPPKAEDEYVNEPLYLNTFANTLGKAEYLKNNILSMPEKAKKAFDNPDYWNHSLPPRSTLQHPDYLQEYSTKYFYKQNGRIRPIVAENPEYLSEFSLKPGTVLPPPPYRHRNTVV
Text: as §1, §2

Aqueous solubility = format: physicochemical
ErbB2 = ErbB2 (Homo sapiens (Human), UniProt P04626); assay: ELISA-based erbB kinase assay (ErbB2); format: biochemical; conditions: GST-erbB2 cytoplasmic fusion protein, 20 uM ATP, poly-Glu-Tyr substrate
Sequence of ErbB2 (P04626 675-1255 limits assumed): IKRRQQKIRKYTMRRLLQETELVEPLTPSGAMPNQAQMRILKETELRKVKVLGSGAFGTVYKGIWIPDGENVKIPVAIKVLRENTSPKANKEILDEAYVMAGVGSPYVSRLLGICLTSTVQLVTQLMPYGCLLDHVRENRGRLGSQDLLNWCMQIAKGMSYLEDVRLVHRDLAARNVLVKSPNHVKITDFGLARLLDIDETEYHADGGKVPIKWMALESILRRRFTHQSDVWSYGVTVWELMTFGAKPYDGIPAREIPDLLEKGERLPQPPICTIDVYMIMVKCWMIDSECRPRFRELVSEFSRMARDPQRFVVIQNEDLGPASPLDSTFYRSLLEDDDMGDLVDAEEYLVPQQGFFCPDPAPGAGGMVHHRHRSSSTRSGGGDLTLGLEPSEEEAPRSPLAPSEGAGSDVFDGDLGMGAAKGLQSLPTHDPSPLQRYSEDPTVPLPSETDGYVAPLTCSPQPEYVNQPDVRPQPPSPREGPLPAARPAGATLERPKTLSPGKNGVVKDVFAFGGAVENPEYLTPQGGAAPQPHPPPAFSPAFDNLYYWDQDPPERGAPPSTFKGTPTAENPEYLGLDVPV
Text: as §1, §2

Sequence of ErbB1 (P00533 668-1210 limits assumed): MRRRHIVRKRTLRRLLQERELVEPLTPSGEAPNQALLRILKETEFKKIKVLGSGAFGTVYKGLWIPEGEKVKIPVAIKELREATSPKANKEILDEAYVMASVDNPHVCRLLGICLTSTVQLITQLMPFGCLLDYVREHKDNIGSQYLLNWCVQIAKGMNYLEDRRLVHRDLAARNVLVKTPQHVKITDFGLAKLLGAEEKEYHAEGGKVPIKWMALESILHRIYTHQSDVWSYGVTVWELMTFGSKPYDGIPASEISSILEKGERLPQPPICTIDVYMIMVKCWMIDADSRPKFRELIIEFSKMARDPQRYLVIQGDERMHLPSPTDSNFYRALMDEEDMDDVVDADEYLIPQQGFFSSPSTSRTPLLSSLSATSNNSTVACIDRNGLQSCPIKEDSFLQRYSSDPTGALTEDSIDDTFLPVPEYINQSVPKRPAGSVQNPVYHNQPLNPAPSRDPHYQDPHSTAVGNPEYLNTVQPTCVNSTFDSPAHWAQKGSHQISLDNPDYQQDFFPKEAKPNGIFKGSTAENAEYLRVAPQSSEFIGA

| SMILES | IC50 (ErbB1) [µM] | IC50 (ErbB4) [µM] | solubility (Aqueous solubility; aqueous medium, pH 6.3, aqueous buffer) [mg/mL] | change of aqueous solubility with pH (Aqueous solubility; at lower pHs (than 6.3)) | IC50 (ErbB2) [µM] |
| --- | --- | --- | --- | --- | --- |
| O=C(/C=C/CN1CCCCC1)Nc1cc2c(Nc3ccc(F)c(Cl)c3)ncnc2cc1OCCF [Example No. 1, 4-Piperidin-1-yl-but-2-enoic acid [4-(3-chloro-4-fluoro-phenylamino)-7-(2-fluoro-ethoxy)-quinazolin-6-yl]-amide] | 0.00644 | 0.0775 |  |  |  |
| O=C(/C=C/CN1CCCCC1)Nc1cc2c(Nc3ccc(F)c(Cl)c3)ncnc2cc1OCC(F)F [Example No. 6, 4-Piperidine-1-yl-but-2-enoic acid [4-(3-chloro-4-fluoro-phenylamino)-7-(2,2-difluoro-ethoxy)-quinazolin-6-yl]-amide] | 0.00987 | 0.154 |  |  | 0.244 |
| COc1cc2ncnc(Nc3ccc(F)c(Cl)c3)c2cc1NC(=O)/C=C/CN1CCCCCC1 [Example No. 10, 4-Azepan-1-yl-but-2-enoic acid [4-(3-chloro-4-fluoro-phenylamino)-7-methoxy-quinazolin-6-yl]-amide] | 0.0121 | 0.0413 |  |  | 0.086 |

Further lines, results first:

| IC50 (ErbB1) [µM] | IC50 (ErbB4) [µM] | solubility (Aqueous solubility; aqueous medium, pH 6.3, aqueous buffer) [mg/mL] | change of aqueous solubility with pH (Aqueous solubility; at lower pHs (than 6.3)) | IC50 (ErbB2) [µM] | SMILES |
| --- | --- | --- | --- | --- | --- |
|  |  | ~0.01 (≈ 21.3 µM) | increases |  | COc1cc2ncnc(Nc3ccc(F)c(Cl)c3)c2cc1NC(=O)/C=C/CN1CCCCC1 [Example No. 2, 4-Piperidin-1-yl-but-2-enoic acid [4-(3-chloro-4-fluoro-phenylamino)-7-methoxy-quinazolin-6-yl]-amide] |
| 0.0114 | 0.0615 |  |  |  | O=C(/C=C/CN1CCCCC1)Nc1cc2c(Nc3ccc(F)c(Cl)c3)ncnc2cc1OCCCN1CCOCC1 [Example No. 7, 4-Piperidin-1-yl-but-2-enoic acid [4-(3-chloro-4-fluoro-phenylamino)-7-(3-morpholin-4-yl-propoxy)-quinazolin-6-yl]-amide] |
| 0.0453 | 0.234 |  |  | 0.212 | COc1cc2ncnc(Nc3ccc(F)c(Cl)c3)c2cc1NC(=O)/C=C/CN1CCCC(F)C1 (centres unmarked) [Example No. 8, 4-(3-Fluoro-piperidin-1-yl)-but-2-enoic acid [4-(3-chloro-4-fluoro-phenylamino)-7-methoxy-Quinazolin-6-yl]-amide] |
|  | 0.147 |  |  | 0.247 | COc1cc2ncnc(Nc3ccc(F)c(Cl)c3)c2cc1NC(=O)/C=C/CN1CCC(F)CC1 [Example No. 9, 4-(4-Fluoro-piperidin-1-yl)-but-2-enoic acid [4-(3-chloro-4-fluoro-phenylamino)-7-methoxy-quinazolin-6-yl]-amide] |
